What was measured:
[1] = biological target: human GLK (Homo sapiens (Human), UniProt Q8IVH8); assay: Kinase activity assay using ADP-Glo method, GLK; type: biochemical; conditions: GLK enzyme concentration 8 nM; ATP 20 μM
Procedure: The IC50 value was assayed by the kinase activity assay using ADP-Glo method to evaluate the inhibitory ability of a test compound on human GLK.
Enzyme buffer conditions: 50 mM Hepes (pH 7.5), 10 mM MgCl2, 1 mM EGTA, 0.01% Brij35, 2 mM DTT.
Preparation of the mixture of kinase and substrate: the concentration of GLK in the reaction solution was 8 nM, the concentration of ATP was […], and the concentration of MBP was 0.05 mg/mL.
(§1) Assay steps: A compound was diluted 4-fold with DMSO in a dilution plate, with a final initial concentration of […] and 10 concentration gradient points. The compound was diluted 50-fold into the kinase reaction buffer, and the mixture was shaken on a shaker for 20 minutes. The kinase was prepared with the enzyme reaction buffer. 2 μL of kinase was added to each well of a reaction plate. 1 μL of the diluted compound in the buffer was added to each well. The plate was sealed with a sealing film, centrifuged at 1000 g for 30 seconds, and placed at room temperature for 10 minutes. The mixed solution of ATP/MBP was prepared with the enzyme reaction buffer. 2 μL of the mixed solution of ATP/MBP was added to the reaction plate. The plate was sealed with a sealing film, and centrifuged at 1000 g for 30 seconds. The mixture in the plate was reacted at room temperature for 60 minutes. 4 μL of ADP-Glo was transferred to the 384 reaction plate, and centrifuged at 1000 rpm/min for 1 min. The plate was incubated at 25° C. for 40 min. 8 μL of detection solution was transferred to the 384 reaction plate, and centrifuged at 1000 rpm/min for 1 min. The plate was incubated at 25° C. for 40 min. The RLU (relative luminescence unit) signal was read with a BMG microplate reader, and the signal intensity was used to characterize the activity of the kinase.
(§2) The kinase activity data were expressed as the comparison of the kinase activity of a group with a test compound and the kinase activity of the blank group (containing only DMSO). The IC50 value was obtained by curve fitting using Prism software (GraphPad7.0).

[2] = In vitro metabolic stability in human liver microsomes; type: in vitro ADME; conditions: 1 μM compound, 0.5 mg/mL protein
Procedure: The in vitro metabolic stability of the compounds of the present disclosure in human was investigated by the metabolic stability in human liver microsomes.
Assay conditions: 1 μM of a compound was incubated with human liver microsomes supplemented with NADPH regeneration system at 37° C. for a certain period of time up to 60 minutes. The concentration of the compound in the resulting sample was assayed by LC-MS/MS method.
Assay procedure: 96-well incubation plates were named T0, T5, T15, T30, T45, T60, Blank60 and NCF60, respectively. The reaction time corresponding to the incubation plates were 0, 5, 15, 30, 45 and 60 minutes, respectively. No test sample or control compound was added to the Blank60 plate, and samples were taken after 60 minutes of incubation. Potassium phosphate buffer was used instead of NADPH regeneration system solution in the NCF60 plate, and the plate was incubated for 60 minutes. All the samples of the time points were from a single well.
5 μL of a test sample or control sample working solution and 100 μL of microsome working solution (the concentration of liver microsome protein was 0.5 mg/mL) were added to the T0, T5, T15, T30, T45, T60 and NCF60 plates, respectively. Only microsome working solution was added to the Blank60 plate. Then, the Blank60, T5, T15, T30, T45 and T60 plates, except TO and NCF60 plates, were placed in a 37° C. water bath, and preincubated for about 10 minutes.
180 μL of stop solution (the stop solution was a solution of tolbutamide (100 ng/mL) in acetonitrile and methanol (95:5, V/V)) was firstly added to the sample of TO plate, and then the NADPH regeneration system working solution was added.
50 μL of potassium phosphate buffer was added to each well of the NCF60 plate, and the plate was incubated for 60 minutes.
After the pre-incubation of Blank60, T5, T15, T30, T45 and T60 plates, 44 μL of NADPH regeneration system working solution was added to each sample well to initiate the reaction. Therefore, for the sample wells containing a test sample or control sample working solution, the final concentration of the reaction was […], the concentration of liver microsomes was 0.5 mg/mL, and the final concentrations of DMSO and acetonitrile in the reaction system were 0.01% (v/v) and 0.99% (v/v), respectively.
After being incubated for an appropriate time (e.g., 5, 15, 30, 45, and 60 min), 180 μL of stop solution was added to each well of the test sample and control sample of Blank60, T5, T15, T30, T45, T60, and NCF60 plates, respectively, to terminate the reaction.
All sample plates were shaken and centrifuged for 10 min. 80 μL of the supernatant of a test sample was taken and diluted into 240 μL of a mixture of acetonitrile and water (1:9, V/V) containing 0.1% formic acid for LC-MS/MS analysis.
By calculating the corresponding time point and the remaining percentage of a compound, the half-life T1/2 and clearance rate CLint(liver) of the compound in human liver microsome metabolism were obtained.

[3] = biological target: human HPK1 (Homo sapiens (Human), UniProt Q92918); assay: Kinase activity assay using ADP-Glo method (Method 2); type: biochemical; conditions: HPK1 enzyme concentration 0.1 nM; ATP concentration 10 μM
Chain of human HPK1 (Q92918 whole entry): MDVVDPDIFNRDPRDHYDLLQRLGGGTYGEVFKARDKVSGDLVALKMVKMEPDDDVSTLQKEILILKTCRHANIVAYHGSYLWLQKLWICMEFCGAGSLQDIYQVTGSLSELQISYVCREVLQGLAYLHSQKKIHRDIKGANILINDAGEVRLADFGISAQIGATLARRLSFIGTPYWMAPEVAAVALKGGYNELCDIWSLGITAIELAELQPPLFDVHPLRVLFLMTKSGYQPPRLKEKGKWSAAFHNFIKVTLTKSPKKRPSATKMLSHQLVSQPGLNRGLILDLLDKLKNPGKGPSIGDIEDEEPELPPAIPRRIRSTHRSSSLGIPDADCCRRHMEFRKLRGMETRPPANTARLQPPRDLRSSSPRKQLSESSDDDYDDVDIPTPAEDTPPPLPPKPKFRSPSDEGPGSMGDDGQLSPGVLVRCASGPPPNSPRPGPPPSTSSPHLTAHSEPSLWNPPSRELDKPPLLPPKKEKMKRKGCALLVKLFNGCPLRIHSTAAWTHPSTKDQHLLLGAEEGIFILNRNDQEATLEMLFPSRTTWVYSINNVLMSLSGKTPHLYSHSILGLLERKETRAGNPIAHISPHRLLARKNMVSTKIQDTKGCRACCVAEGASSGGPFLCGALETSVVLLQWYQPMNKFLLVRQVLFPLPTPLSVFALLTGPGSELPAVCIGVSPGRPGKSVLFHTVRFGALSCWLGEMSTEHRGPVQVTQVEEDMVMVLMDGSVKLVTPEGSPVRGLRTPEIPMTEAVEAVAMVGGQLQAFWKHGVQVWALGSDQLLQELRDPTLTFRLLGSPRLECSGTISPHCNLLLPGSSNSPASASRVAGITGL
Procedure: Method 2: The IC50 value was assayed by the kinase activity assay using ADP-Glo method to evaluate the inhibitory ability of a test compound on human HPK1.
Enzyme buffer conditions: 50 mM Hepes (pH 7.5), 10 mM MgCl2, 1 mM EGTA, 0.01% Brij35, 2 mM DTT. […]
as §1, with “4 μL of ADP-Glo was transferred to the 384 reaction plate, and centrifuged at 1000 rpm/min for 1 min.” left out, “8 μL of detection solution was transferred to the 384 reaction plate, and centrifuged at 1000 rpm/min for 1 min.” left out
as §2

Chain of human GLK (Q8IVH8 whole entry): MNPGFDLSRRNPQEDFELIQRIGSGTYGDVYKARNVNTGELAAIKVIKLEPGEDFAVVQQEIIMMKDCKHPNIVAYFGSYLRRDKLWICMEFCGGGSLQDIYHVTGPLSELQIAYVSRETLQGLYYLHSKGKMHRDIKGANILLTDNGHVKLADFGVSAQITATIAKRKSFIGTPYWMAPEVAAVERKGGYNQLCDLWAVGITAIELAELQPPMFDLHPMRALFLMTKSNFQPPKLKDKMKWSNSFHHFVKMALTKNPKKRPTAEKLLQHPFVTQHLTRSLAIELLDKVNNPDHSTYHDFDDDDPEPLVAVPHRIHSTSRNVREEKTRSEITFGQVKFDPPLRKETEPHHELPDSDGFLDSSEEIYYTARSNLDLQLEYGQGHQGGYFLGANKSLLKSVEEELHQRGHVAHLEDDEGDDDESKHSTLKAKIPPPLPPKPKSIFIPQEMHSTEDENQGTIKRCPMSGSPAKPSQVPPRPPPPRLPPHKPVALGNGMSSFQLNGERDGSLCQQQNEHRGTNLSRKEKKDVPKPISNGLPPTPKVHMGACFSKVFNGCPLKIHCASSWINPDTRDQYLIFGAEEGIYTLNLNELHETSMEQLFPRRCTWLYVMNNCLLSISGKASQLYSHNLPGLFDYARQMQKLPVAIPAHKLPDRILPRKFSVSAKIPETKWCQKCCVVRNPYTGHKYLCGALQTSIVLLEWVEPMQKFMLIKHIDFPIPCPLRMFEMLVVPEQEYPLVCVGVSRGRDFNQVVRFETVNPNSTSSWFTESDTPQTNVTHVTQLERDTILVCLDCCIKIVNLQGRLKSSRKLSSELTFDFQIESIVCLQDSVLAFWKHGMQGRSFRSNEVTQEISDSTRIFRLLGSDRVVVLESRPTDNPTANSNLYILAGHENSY

Row | SMILES | IC50 [1] [nM] | CLint(liver) [2] [mL/min/kg] | T1/2 [2] [min] | IC50 [3] [nM] | CLint scaled at 1 μM [2] [mL/min/kg] | half-life at 1 μM [2] [min]
1 | Cn1ccc2c(-c3ncc(Nc4ccc5c(n4)OC[C@@H]4COCCN54)c4c3CNC4=O)ccnc21 [Compound 4] | 594 | 35 | 36 | 0.62 | – | –
2 | O=C1NCc2c(-c3cnc4cc(F)ccn34)ccc(Nc3ccc4c(n3)OC[C@@H]3COCCN43)c21 [Compound 8] | 154 | – | – | 2 | 37 | 34

Reference: US20250282798A1, “HETEROARYL-SUBSTITUTED BICYCLIC COMPOUND AND USE THEREOF” (Medshine Discovery Inc., priority 2022, published 2025)
